Experimental data from US12421225B2, “Heteroaromatic amide derivative and medicament containing the same” (KAKEN PHARMACEUTICAL CO., LTD., priority 2018, dated 2025).

What follows are compounds tested against human Nav1.7 (Homo sapiens (Human), UniProt Q15858) (assay: Human Nav1.7 inhibitory activity evaluation (automated patch clamp QPatch16X, HEK293A cells stably expressing human Nav1.7 and human Navβ1)). Conditions: HEK293A cells stably expressing human Nav1.7 and human Navβ1, automated patch clamp QPatch16X.
human Nav1.7, sequence (Q15858 whole entry): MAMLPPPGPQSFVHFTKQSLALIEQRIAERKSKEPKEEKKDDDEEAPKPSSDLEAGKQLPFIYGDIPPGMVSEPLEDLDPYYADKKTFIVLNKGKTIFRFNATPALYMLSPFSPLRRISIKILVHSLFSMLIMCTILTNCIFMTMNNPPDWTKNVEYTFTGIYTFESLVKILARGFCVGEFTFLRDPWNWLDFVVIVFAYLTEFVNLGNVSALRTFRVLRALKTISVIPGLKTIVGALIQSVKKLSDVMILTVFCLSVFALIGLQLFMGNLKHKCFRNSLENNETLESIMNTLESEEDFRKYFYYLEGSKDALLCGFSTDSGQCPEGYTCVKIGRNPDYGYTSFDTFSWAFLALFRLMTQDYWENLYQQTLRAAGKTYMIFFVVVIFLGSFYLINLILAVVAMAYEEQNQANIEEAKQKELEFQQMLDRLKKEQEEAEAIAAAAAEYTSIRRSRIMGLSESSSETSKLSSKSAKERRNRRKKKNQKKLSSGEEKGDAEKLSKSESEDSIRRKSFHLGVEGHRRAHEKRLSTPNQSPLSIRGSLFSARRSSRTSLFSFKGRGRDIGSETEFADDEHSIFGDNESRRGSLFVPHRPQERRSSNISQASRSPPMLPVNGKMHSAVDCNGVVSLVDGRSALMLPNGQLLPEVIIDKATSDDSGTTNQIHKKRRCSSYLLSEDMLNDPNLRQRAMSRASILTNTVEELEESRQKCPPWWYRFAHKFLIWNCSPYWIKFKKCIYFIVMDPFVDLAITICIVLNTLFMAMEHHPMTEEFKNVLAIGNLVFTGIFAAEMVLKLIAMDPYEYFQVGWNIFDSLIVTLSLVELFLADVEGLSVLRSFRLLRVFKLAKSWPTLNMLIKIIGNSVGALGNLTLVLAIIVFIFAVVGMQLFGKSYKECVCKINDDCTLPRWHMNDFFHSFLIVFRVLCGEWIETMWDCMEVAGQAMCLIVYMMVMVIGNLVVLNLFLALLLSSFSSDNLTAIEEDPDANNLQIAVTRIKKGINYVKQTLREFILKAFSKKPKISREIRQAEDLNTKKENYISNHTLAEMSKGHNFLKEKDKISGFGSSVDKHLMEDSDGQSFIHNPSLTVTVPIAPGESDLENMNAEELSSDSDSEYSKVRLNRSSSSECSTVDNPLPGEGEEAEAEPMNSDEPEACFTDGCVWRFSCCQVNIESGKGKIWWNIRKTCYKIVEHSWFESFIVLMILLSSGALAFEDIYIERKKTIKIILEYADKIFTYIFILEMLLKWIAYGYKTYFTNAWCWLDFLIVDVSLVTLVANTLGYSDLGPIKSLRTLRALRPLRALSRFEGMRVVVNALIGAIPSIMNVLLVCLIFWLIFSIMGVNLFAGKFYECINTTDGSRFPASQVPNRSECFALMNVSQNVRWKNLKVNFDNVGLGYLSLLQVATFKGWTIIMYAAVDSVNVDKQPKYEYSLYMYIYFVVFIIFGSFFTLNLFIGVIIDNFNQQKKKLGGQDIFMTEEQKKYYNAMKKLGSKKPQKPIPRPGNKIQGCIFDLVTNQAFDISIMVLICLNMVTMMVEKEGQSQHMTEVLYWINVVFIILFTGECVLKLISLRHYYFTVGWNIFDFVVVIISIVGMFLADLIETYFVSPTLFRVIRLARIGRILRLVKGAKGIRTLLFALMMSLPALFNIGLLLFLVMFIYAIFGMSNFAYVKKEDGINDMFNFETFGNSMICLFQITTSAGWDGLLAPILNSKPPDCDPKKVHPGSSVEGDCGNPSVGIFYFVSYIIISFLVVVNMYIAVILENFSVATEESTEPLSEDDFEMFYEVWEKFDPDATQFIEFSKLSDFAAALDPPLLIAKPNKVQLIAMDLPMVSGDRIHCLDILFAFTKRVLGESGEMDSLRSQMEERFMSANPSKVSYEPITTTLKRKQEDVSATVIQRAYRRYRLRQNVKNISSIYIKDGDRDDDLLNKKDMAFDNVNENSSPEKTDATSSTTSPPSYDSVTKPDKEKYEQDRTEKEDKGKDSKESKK
human Nav1.7, sequence (Q07699 19-218 partner): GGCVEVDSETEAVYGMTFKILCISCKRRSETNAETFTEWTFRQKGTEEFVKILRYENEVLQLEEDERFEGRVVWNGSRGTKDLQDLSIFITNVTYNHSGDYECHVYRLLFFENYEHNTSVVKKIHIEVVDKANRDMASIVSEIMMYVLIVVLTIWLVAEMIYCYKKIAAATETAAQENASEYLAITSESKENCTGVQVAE
Assay type: cell-based
Method: Test Example 1: Human Nav1.7 Inhibitory Activity Evaluation
A cell line in which human Nav1.7 and human Navβ1 subunits were stably expressed in HEK293A cells was used. Dulbecco's Modified Eagle Medium (DMEM) supplemeted with 10% fetal bovine serum, 600 μg/ml geneticin, and 2 μg/ml blasticidin S were used as culture medium under the conditions of 37° C. and 5% CO2 in T175 flasks to carry out culturing. When 60-80% confluence was reached, the cells were detached and a cell suspension of about 0.5-5.0×10^6 cells/mL was prepared. The amount of current through human Nav1.7 was recorded using a fully automatic patch clamp device QPatch16X (Sophion Biosciences) at room temperature. As the extracellular solution, the solution of 145 mM NaCl, 4 mM KCl, 1 mM MgCl2, 2 mM CaCl2, 10 mM Glucose, 10 mM 4-(2-hydroxyethyl)-1-piperazine ethanesulfonic acid (HEPES) at pH 7.4 was used. As the intracellular solution, the solution of 135 mM CsF, ⅕ mM glycol ether diaminetetraacetic acid (EGTA)/CsOH, 10 mM HEPES, 10 mM NaCl at pH 7.3 was used. The test compounds were dissolved in dimethyl sulfoxide (DMSO) and diluted with the extracellular solution to attain the DMSO concentration of 0.1% at the time of assay.
The current response was obtained at a sampling frequency of 25 kHz, and noise was removed with a 3 kHz low-pass filter. The holding potential was −100 mV. Correction of the leakage current was carried out by applying a step pulse of −120 mV before the test pulse. In order to investigate inhibitory action of the test compound, the following test pulse was given: Namely, after depolarizing pulse of −10 mV was applied for 50 milliseconds, it was fixed at −120 mV for 500 milliseconds; a potential at which about 30-40% of the channel was inactivated was maintained for 15 seconds, then fixed again at −120 mV for 100 milliseconds, and finally a −10 mV depolarization pulse was given for 50 milliseconds. Test pulses were given before and after the test compound addition.
The inhibitory activity of the test compound was determined based on the amount of inward current generated by the second depolarization pulse, and the 50% inhibitory concentration (IC50) was calculated from the concentration-response curve.
For `N#Cc1ccc2c(c1)C[C@@H](NC(=O)c1cc3n(n1)CCC(CC1CC1)O3)CO2` (single isomer, unassigned) [97 (isomer A)], the IC50 was under 1 µM.
For `O=C(N[C@H]1COc2ccc(CC(F)F)cc2C1)c1cc2n(n1)CCC(COC(F)F)O2` (single isomer, unassigned) [138 (isomer A)], the IC50 was under 1 µM.
Work on `O=C(N[C@H]1COc2ccc(CC(F)F)cc2C1)c1cc2n(n1)CCC(COC(F)F)O2` (single isomer, unassigned) [138 (isomer B)] yielded an IC50 of under 10 µM.

Same assay, conditions: human Nav1.7, automated patch clamp
`O=C(N[C@H]1COc2ccc(COCC(F)(F)F)cc2C1)c1cc2n(n1)CC(CC1CCOCC1)O2` (mixture of isomers) [Example 605] gave an IC50 of under 1 µM.
With `N#Cc1ccc2c(c1)C[C@@H](NC(=O)c1cc3n(n1)CCC(CCOC(F)(F)F)O3)CO2` (single isomer, unassigned) [144 (isomer A)] the IC50 was under 1 µM.
Work on `N#Cc1ccc2c(c1)C[C@@H](NC(=O)c1cc3n(n1)CCC(CCOC(F)F)O3)CO2` (single isomer, unassigned) [146 (isomer A)] yielded an IC50 of under 10 µM.
Compound `O=C(N[C@H]1COc2ccc(CC(F)F)cc2C1)c1cc2n(n1)CCC(CCOC(F)F)O2` (single isomer, unassigned) [148 (isomer A)] has an IC50 of under 1 µM.
`O=C(N[C@H]1COc2ccc(COCC(F)(F)F)cc2C1)c1cc2n(n1)CCC(CCOC(F)F)O2` (single isomer, unassigned) [150 (isomer A)] gave an IC50 of under 1 µM.
Work on `O=C(N[C@H]1COc2ccc(COCC(F)(F)F)cc2C1)c1cc2n(n1)CCC(CN1CCC(F)(F)C1)O2` (single isomer, unassigned) [154 (isomer A)] yielded an IC50 of under 10 µM.
`N#Cc1ccc2c(c1)C[C@@H](NC(=O)c1cc3n(n1)CCC(CSC(F)(F)F)O3)CO2` (single isomer, unassigned) [156 (isomer B)] showed an IC50 of under 10 µM.
`O=C(N[C@H]1COc2ccc(Cl)cc2C1)c1cc2n(n1)CCC(C(F)F)O2` (single isomer, unassigned) [158 (isomer B)] showed an IC50 of under 10 µM.
Compound `O=C(N[C@H]1COc2ccc(C(F)(F)F)cc2C1)c1cc2n(n1)CCC(C(F)F)O2` (single isomer, unassigned) [161 (isomer B)] has an IC50 of under 10 µM.
Compound `O=C(N[C@H]1COc2ccc(COCC(F)(F)F)cc2C1)c1cc2n(n1)CCC(C(F)F)O2` (single isomer, unassigned) [163 (isomer B)] has an IC50 of under 10 µM.
Work on `O=C(N[C@H]1COc2ccc(CCOC(F)F)cc2C1)c1cc2n(n1)CCC(C(F)F)O2` (single isomer, unassigned) [165 (isomer A)] yielded an IC50 of under 1 µM.
`O=C(N[C@H]1COc2ccc(CCOC(F)F)cc2C1)c1cc2n(n1)CCC(C(F)F)O2` (single isomer, unassigned) [165 (isomer B)] was tested, and the IC50 was under 10 µM.
In the case of `O=C(N[C@H]1COc2ccc(CC(F)F)cc2C1)c1cc2n(n1)CCC(C(F)(F)F)O2` (single isomer, unassigned) [173 (isomer B)], the IC50 is reported as under 10 µM.
With `O=C(N[C@H]1COc2ccc(COCC(F)(F)F)cc2C1)c1cc2n(n1)CC(C(F)(F)F)O2` (single isomer, unassigned) [184 (isomer B)] the IC50 was under 10 µM.
Compound `O=C(N[C@H]1COc2ccc(CC(F)(F)F)cc2C1)c1cc2n(n1)CC(COCC(F)(F)F)O2` (single isomer, unassigned) [192 (isomer B)] has an IC50 of under 1 µM.
Work on `Cc1cnc(-c2ccc3c(c2)C[C@@H](NC(=O)c2cc4n(n2)CC(COCC(F)(F)F)O4)CO3)cn1` (single isomer, unassigned) [194 (isomer A)] yielded an IC50 of under 10 µM.
`O=C(N[C@H]1COc2ccc(CC(F)F)cc2C1)c1cc2n(n1)CC(COC(F)(F)F)O2` (single isomer, unassigned) [198 (isomer A)] gave an IC50 of under 10 µM.
`Cn1ccc(-c2ccc3c(c2)C[C@@H](NC(=O)c2cc4n(n2)CC(CCOCC(F)(F)F)O4)CO3)n1` (single isomer, unassigned) [206 (isomer A)] gave an IC50 of under 1 µM.
In the case of `N#Cc1ccc2c(c1)C[C@@H](NC(=O)c1cc3n(n1)CC(CCOC(F)(F)F)O3)CO2` (single isomer, unassigned) [209 (isomer A)], the IC50 is reported as under 10 µM.
With `O=C(N[C@H]1COc2ccc(CC(F)F)cc2C1)c1cc2n(n1)CC(CCOC(F)(F)F)O2` (single isomer, unassigned) [211 (isomer A)] the IC50 was under 1 µM.
`O=C(N[C@H]1COc2ccc(-c3cnccn3)cc2C1)c1cc2n(n1)CC(CCOC(F)F)O2` (single isomer, unassigned) [223 (isomer A)] was tested, and the IC50 was under 10 µM.
`Cc1ccc2c(c1)C[C@@H](NC(=O)c1cc3n(n1)CC(CCNCC(F)(F)F)O3)CO2` (single isomer, unassigned) [228 (isomer B)] showed an IC50 of under 10 µM.
`O=C(N[C@H]1COc2ccc(C(F)(F)F)cc2C1)c1cc2n(n1)CC(CCNCC(F)(F)F)O2` (single isomer, unassigned) [230 (isomer B)] showed an IC50 of under 10 µM.
For `O=C(N[C@H]1COc2ccc(CCOC(F)F)cc2C1)c1cc2n(n1)CC(CCN1CC(F)(F)C1)O2` (single isomer, unassigned) [238 (isomer A)], the IC50 was under 1 µM.
In the case of `O=C(N[C@H]1COc2ccc(CCOC(F)(F)F)cc2C1)c1cc2n(n1)CC(CCN1CC(F)(F)C1)O2` (single isomer, unassigned) [240 (isomer A)], the IC50 is reported as under 10 µM.
`O=C(N[C@H]1COc2ccc(CCOC(F)(F)F)cc2C1)c1cc2n(n1)CC(CCN1CC(F)(F)C1)O2` (single isomer, unassigned) [240 (isomer B)] showed an IC50 of under 10 µM.
In the case of `O=C(N[C@H]1COc2ccc(CC(F)(F)F)cc2C1)c1cc2n(n1)CC(CCN1CCC(F)(F)C1)O2` (single isomer, unassigned) [241 (isomer A)], the IC50 is reported as under 1 µM.
Work on `O=C(N[C@H]1COc2ccc(C(F)(F)F)cc2C1)c1cc2n(n1)CC(CCN1CCC(F)(F)CC1)O2` (single isomer, unassigned) [242 (isomer A)] yielded an IC50 of under 1 µM.
With `N#Cc1ccc2c(c1)C[C@@H](NC(=O)c1cc3n(n1)CC(CCCOC(F)F)O3)CO2` (single isomer, unassigned) [248 (isomer B)] the IC50 was under 10 µM.
In the case of `N#Cc1ccc2c(c1)C[C@@H](NC(=O)c1cc3n(n1)CCC(OC(F)(F)F)CO3)CO2` (single isomer, unassigned) [253 (isomer A)], the IC50 is reported as under 10 µM.
For `N#Cc1ccc2c(c1)C[C@@H](NC(=O)c1cc3n(n1)CCC(OC(F)(F)F)CO3)CO2` (single isomer, unassigned) [253 (isomer B)], the IC50 was under 10 µM.
`N#Cc1ccc2c(c1)C[C@@H](NC(=O)c1cc3n(n1)CCC(OCC(F)(F)F)CO3)CO2` (single isomer, unassigned) [255 (isomer A)] was tested, and the IC50 was under 10 µM.
For `O=C(N[C@H]1COc2ccc(C(F)(F)F)cc2C1O)c1cc2n(n1)CCC(C(F)F)O2` (single isomer, unassigned) [534 (isomer A)], the IC50 was under 10 µM.
Compound `O=C(N[C@H]1COc2ccc(C(F)(F)F)cc2C1O)c1cc2n(n1)CCC(C(F)F)O2` (single isomer, unassigned) [534 (isomer B)] has an IC50 of under 10 µM.
`CC(C)(F)C1CCn2nc(C(=O)N[C@H]3COc4ccc(C#N)cc4C3)cc2O1` (single isomer, unassigned) [547 (isomer B)] gave an IC50 of under 10 µM.
For `N#CC1(COCC2CCn3nc(C(=O)N[C@H]4COc5ccc(C(F)(F)F)cc5C4)cc3O2)CC1` (single isomer, unassigned) [554 (isomer B)], the IC50 was under 10 µM.
`O=C(N[C@H]1COc2ccc(C(F)(F)F)cc2C1O)c1cc2n(n1)CC(CCOCC(F)(F)F)O2` (single isomer, unassigned) [600 (isomer A)] was tested, and the IC50 was under 10 µM.
In the case of `O=C(N[C@H]1COc2ccc(CC(F)F)cc2C1)c1cc2n(n1)CCC(COCC(F)(F)F)CO2` (single isomer, unassigned) [601 (isomer A)], the IC50 is reported as under 10 µM.
`O=C(N[C@H]1COc2ccc(C(F)(F)F)cc2C1O)c1cc2n(n1)CC(CCCOCC(F)(F)F)O2` (single isomer, unassigned) [603 (isomer A)] was tested, and the IC50 was under 1 µM.
With `N#Cc1ccc2c(c1)C[C@@H](NC(=O)c1cc3n(n1)CC(CCCOCC(F)F)O3)CO2` (single isomer, unassigned) [604 (isomer B)] the IC50 was under 10 µM.
With `O=C(N[C@H]1COc2ccc(C(F)(F)F)cc2C1O)c1cc2n(n1)CC(CCCOCC(F)F)O2` (single isomer, unassigned) [610 (isomer B)] the IC50 was under 10 µM.
With `O=C(N[C@H]1COc2ccc(C(F)(F)F)cc2C1O)c1cc2n(n1)CC(CCCOCC(F)(F)F)O2` (single isomer, unassigned) [616 (isomer B)] the IC50 was under 10 µM.
With `N#Cc1ccc2c(c1)C(F)[C@@H](NC(=O)c1cc3n(n1)CCC(COCC1CC1)O3)CO2` (single isomer, unassigned) [617 (isomer B)] the IC50 was under 10 µM.
Work on `O=C(N[C@H]1COc2ccc(C(F)(F)F)cc2C1O)c1cc2n(n1)CC(CCOCC1CC1)O2` (single isomer, unassigned) [636 (isomer A)] yielded an IC50 of under 1 µM.
